Measurements published in paper PMC4841555, “Optimization of the All-D Peptide D3 for Aβ Oligomer Elimination” (PLoS ONE, 2016).
Non-standard residues stand in square brackets, D forms with d. Residues, ends and D or L forms follow the SMILES beside them.

What was measured:
Assay type in all cases: biochemical
[1] = molecular target: T1, Aβ(1–42) oligomers (Homo sapiens, UniProt P05067); assay: QIAD assay (Aβ oligomer elimination); conditions: 20 μM DB3, 80 μM Aβ(1–42) preincubated 4.5 h, 40 min with peptide, density gradient centrifugation, RP-HPLC, vs Aβ only control, triplicate
T1 construct: Aβ(1–42), N-terminally biotinylated Aβ(1–42) and FITC-Aβ(1–42) were purchased from Bachem; purchased Bachem (Heidelberg, Germany)
Procedure: The quantitative determination of interference with Aβ(1–42) aggregate size distribution (QIAD) was performed as described before. In brief, 80 μM Aβ(1–42) was incubated in 10 mM sodium phosphate buffer, pH 7.4 for 4.5 h at 22°C with 600 rpm agitation. Aβ(1–42) aggregation was continued for an additional 40 min with or without DB peptide. The obtained partial size distribution was analyzed by applying density gradient centrifugation. 100 μl of the incubated sample was placed on top of a gradient with 5 to 50% iodixanol (Optiprep, Axis-shield, Oslo, Norway) and separated at 259.000 x g for 3 h at 4°C using an ultracentrifuge (Optima MAX-XP, Beckman Coulter, Brea, USA). Fourteen fractions of 140 μl were taken from top to bottom. […] For quantification of the Aβ(1–42) amount in each fraction, reversed-phase high performance liquid chromatography (RP-HPLC) was performed using a Zorbax SB-300 C8 column (Agilent, Böblingen, Germany) connected to an Agilent 1260 Infinity system using 30% (v/v) acetonitrile with 0.1% (v/v) trifluoroacetic acid (TFA) as the mobile phase with a flow of 1 ml/min and a column temperature of 80°C. […] The UV absorption at 214 nm was measured. For quantification of the Aβ(1–42) amount, the area under the peak representing Aβ(1–42) was calculated and the molar concentration was determined using a calibration curve. […]

[2] = molecular target: T2, Aβ(1–42) (Homo sapiens, UniProt P05067); assay: Aβ aggregation inhibition ELISA; conditions: 400 nM Aβ(1–42), 500 mM Tris pH 7.4, 23 h, 37°C, aggregate-specific ELISA, logistic fit, three independent experiments; read-out: EC50 of inhibition of Aβ aggregate formation
T2 construct: Aβ(1–42), N-terminally biotinylated Aβ(1–42) and FITC-Aβ(1–42) were purchased from Bachem; purchased Bachem (Heidelberg, Germany)
Procedure: Freshly dissolved monomeric Aβ(1–42) (400 nM in 500 mM Tris-buffer pH 7.4) was incubated with and without DB peptides in different concentrations (0.01, 0.05, 0.1, 0.5, 1, 5, 10, 50 and 100 μM for DB3 or half of the molar concentrations in case of DB3DB3) in a humidity chamber for 23 h at 37°C. The aggregation was analyzed by an enzyme-linked immunosorbent assay (ELISA). NP27 antibody in bicarbonate/carbonate buffer was used to coat the ELISA plate overnight. Then the plate was washed in PBS-Tween buffer (1x PBS + 0.05% Tween) and blocked for 2 h at room temperature with 5% casein buffer. After washing, Aβ aggregate solutions were added to the plate and incubated for 1 h at room temperature. The plate was washed again and bound Aβ aggregates were detected by biotinylated 6E10/HRP-avidin mediated immunoreaction (BioLegend, San Diego, CA USA) using TMB as detection reagent. […] Mean value and standard error were calculated from three independent experiments. EC50 was calculated by fitting the data to a logistic dose response function.
Fig 5 Inhibition of Aβ fibril formation and Aβ aggregation disassemble by DB3 and DB3DB3. A) Monomeric Aβ(1–42) (400 nM) was mixed with different concentrations of DB3 (0.01, 0.05, 0.1, 0.5, 1, 5, 10, 50, 100 μM) and the aggregation state of Aβ was analyzed using an Aβ aggregate specific ELISA. […] All data were determined in triplicate. […]

[3] = molecular target: T3, preformed Aβ(1–42) aggregates (Homo sapiens, UniProt P05067); assay: Aβ aggregate disassembly ELISA; conditions: 400 nM Aβ(1–42) preincubated 22 h at 37°C, then with peptide 22 h (24 h) at 37°C, ELISA, triplicate
T3 construct: Aβ(1–42), N-terminally biotinylated Aβ(1–42) and FITC-Aβ(1–42) were purchased from Bachem; purchased Bachem (Heidelberg, Germany)
Procedure: Freshly dissolved monomeric Aβ(1–42) (400 nM in 500 mM Tris-buffer pH 7.4) was incubated in a humidity chamber for 22 h at 37°C in order to preform Aβ(1–42) aggregates. These preformed aggregates were coincubated with D-peptide in different concentrations (0.01, 0.05, 0.1, 0.5, 1, 5, 10, 50, 100 μM for DB3 or with half of the molar concentrations in case of DB3DB3) for additional 22 h at 37°C. The content of Aβ aggregates was measured and evaluated in the same way as the aggregation inhibition ELISA.
Fig 5 Inhibition of Aβ fibril formation and Aβ aggregation disassemble by DB3 and DB3DB3. A) Monomeric Aβ(1–42) (400 nM) was mixed with different concentrations of DB3 (0.01, 0.05, 0.1, 0.5, 1, 5, 10, 50, 100 μM) and the aggregation state of Aβ was analyzed using an Aβ aggregate specific ELISA. For DB3DB3 half of the molar concentrations compared to DB3 were used. Aβ without DB3 and DB3DB3 addition was taken as control. For DB3 an EC50 of 6 μM was calculated using a logistic fit model. DB3DB3 inhibited the formation of Aβ fibrils more efficiently with an EC50 of 7 nM. B) The disassembly properties of DB3 and DB3DB3 were measured using an Aβ aggregation specific ELISA. Monomeric Aβ(1–42) (400 nM) was preincubated in order to form fibrils and mixed with nine different concentrations of DB3 (0.01, 0.05, 0.1, 0.5, 1, 5, 10, 50, 100 μM). For DB3DB3, the molar concentrations were half those used for DB3. […] DB3DB3 disassembled Aβ aggregates at the lowest concentration […]. Thus, the EC50 could not be determined, but is < 10 nM. All data were determined in triplicate. The Mann-Whitney-U-test was performed for statistical analysis. * p< 0.05; ** p < 0.01; *** p < 0.001
The Aβ aggregate disassembly ELISA was used to analyze the effect of DB3 and DB3DB3 on preformed Aβ aggregates (Fig 5B). […] The Aβ aggregates specific ELISA was used to quantify Aβ aggregates. […] The results of measured Aβ aggregates normalized to the Aβ control were plotted against the peptide concentration. The EC50 was calculated by a logarithmic dose response function.

T1 sequence (P05067 672-713 limits assumed): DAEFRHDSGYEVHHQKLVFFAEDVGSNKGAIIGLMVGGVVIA
T3 sequence (P05067 672-713 limits assumed): as above
T2 sequence (P05067 672-713 limits assumed): as above

In the case of `CC[C@@H](C)[C@@H](NC(=O)[C@H]1CCCN1C(=O)[C@H](N)CCCNC(=N)N)C(=O)N[C@@H](C(=O)N[C@H](CCCNC(=N)N)C(=O)N[C@H](CC(C)C)C(=O)N[C@H](CCCNC(=N)N)C(=O)N[C@@H](C(=O)N[C@H](Cc1c[nH]cn1)C(=O)N[C@H](CCC(N)=O)C(=O)N[C@H](CC(N)=O)C(=O)N[C@H](CCCNC(=N)N)C(N)=O)[C@H](C)O)[C@H](C)O` [DB3] (H-[dR][dP][dI][dT][dR][dL][dR][dT][dH][dQ][dN][dR]-NH2), the “reduction of the amount of Aβ oligomers” value [1] is reported as ~ 27%, the EC50 [2] is reported as 6 µM and the EC50 [3] is reported as 2.5 µM.
